One molecule from patent US12370235B2, “Synthetic, non-natural antimicrobial peptides inspired by Staphylococcus auricularis delta toxin” (University of Saskatchewan, priority 2021, dated 2025) can be followed below.

Series [1] relates to S. aureus / MRSA (ATCC MP-2 panel). In kind it is cell-based, Staphylococcus aureus. To be noted: in words. A digest of the protocol: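 MIC by broth microdilution in cation-adjusted Mueller Hinton broth: cultures diluted to OD 6×10^−4 and exposed to 2-fold peptide dilution series, standing overnight at 37° C. MIC = lowest peptide concentration with no visible growth. Panel: one methicillin-sensitive S. aureus plus 7 MRSA strains of distinct SCCmec genotypes.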

The test system of series [2] is C. albicans MYA-2876. Put plainly: MIC, YPD broth. To be noted: Table 8. In kind it is cell-based, Candida albicans. In a few lines:
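Minimum inhibitory concentrations against Candida albicans were determined in YPD broth (10 g/L yeast extract, 20 g/L peptone, 20 g/L dextrose) using peptides of 95% purity. A 180 μl volume of diluted yeast was combined with 20 μl of peptide in a 2-fold dilution series in 96-well plates, with sterile water as control, then incubated standing overnight at 37° C.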

Series [3] relates to C. albicans Y537. Kind of series: MIC, YPD broth. To be noted: Table 8. In kind it is cell-based, Candida albicans.
Series [4] has as its system MRSA ATCC 33592. Kind of series: DiSC3(5) membrane polarization assay. In kind it is cell-based, Staphylococcus aureus. To be noted: 1.56 to 25 μg/mL. As to the method:
(§1) Membrane disruption and depolarization are commonly reported mechanisms of AMP action. Two indirect assays that rely on fluorescent dyes were employed to assess the interaction of STIP3-29 and D-STIP3-29 with bacterial membranes. First, changes to SYTOX fluorescence was measured when MRSA ATCC 33592 was treated with increasing peptide concentrations ranging from one fourth to four-fold the MIC. […] Next, DiSC3(5), a cationic dye that binds to polarized membranes was used to report on possible depolarization related to AMP treatment. […] Thus, without wishing to be bound by theory, a more conservative explanation of the results is that the cationic peptides increase membrane permeability to SYTOX and that the like-charge of the AMPs to the reporter of polarization may confound the interpretation of the indirect assay. For example, the AMPs may simply displace the self-quenching DiSC3(5) molecules from the membrane surface without causing depolarization.

The subject of series [5] is MRSA ATCC 33592. Put plainly: SYTOX Green membrane integrity assay. To be noted: one fourth to four-fold the MIC. The class given is cell-based, Staphylococcus aureus. As to the method: as §1
The test system of series [6] is S. aureus ATCC BAA-2094 (MRSA SCCmec type V). Kind of series: MIC, broth dilution. The class given is cell-based, Staphylococcus aureus. To be noted: Table 5; STIP3 variants, highest concentration 100 μg/mL. In a few lines: (§2)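 Peptides (95% purity) were serially diluted 2-fold and mixed with bacteria diluted to OD 6×10^−4 in cation-adjusted Mueller Hinton broth. Standing cultures were incubated overnight at 37° C. MIC was the lowest peptide concentration with no observed growth.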

The subject of series [7] is S. aureus ATCC BAA-41 (MRSA SCCmec type II). Kind of series: MIC, broth dilution. To be noted: Table 5; STIP3 variants, highest concentration 100 μg/mL. In kind it is cell-based, Staphylococcus aureus. A digest of the protocol:
as §2

In series [8] the test system is S. aureus ATCC 29213. Put plainly: MIC, broth dilution. The class given is cell-based, Staphylococcus aureus. To be noted: Table 5; STIP3 variants, highest concentration 100 μg/mL. A digest of the protocol: as §2
For series [9], the system named is S. aureus ATCC 33592 (MRSA SCCmec type III). Put plainly: MIC, broth dilution. To be noted: Table 5; STIP3 variants, highest concentration 100 μg/mL. In kind it is cell-based, Staphylococcus aureus. In a few lines: as §2
In series [10] the test system is S. aureus ATCC BAA-42 (MRSA SCCmec type VI). Kind of series: MIC, broth dilution. To be noted: Table 5; STIP3 variants, highest concentration 100 μg/mL. The class given is cell-based, Staphylococcus aureus. A digest of the protocol: as §2
The test system of series [11] is S. aureus ATCC BAA-44 (MRSA SCCmec type I). Kind of series: MIC, broth dilution. In kind it is cell-based, Staphylococcus aureus. To be noted: Table 5; STIP3 variants, highest concentration 100 μg/mL. In a few lines: as §2
In series [12] the test system is S. aureus ATCC BAA-2313 (MRSA SCCmec type XI). Put plainly: MIC, broth dilution. To be noted: Table 5; STIP3 variants, highest concentration 100 μg/mL. In kind it is cell-based, Staphylococcus aureus. In a few lines:
as §2

The subject of series [13] is S. aureus ATCC BAA-1683 (MRSA SCCmec type IV). Put plainly: MIC, broth dilution. In kind it is cell-based, Staphylococcus aureus. To be noted: Table 5; STIP3 variants, highest concentration 100 μg/mL. In a few lines: as §2
Series [14] is described as follows: Circular dichroism spectroscopy. In kind it is physicochemical. To be noted: CD, 50% (v/v) TFE. A digest of the protocol: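 Secondary structure of peptides dissolved in water at 0.3–0.5 mg/mL was assessed by CD. Spectra were recorded from 180 to 260 nm at room temperature in a 0.1 cm quartz cuvette; water and 50% (v/v) TFE conditions were compared.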
For series [15], the system named is HeLa cells. The class given is cell-based. To be noted: 24 h, alamarBlue. As to the method:
Peptide cytotoxicity. In vitro cytotoxicity was measured using the 3D EpiDerm skin tissues and HeLa Cells using a fluorescent reporter of cell viability, alamarBlue (ThermoFisher Scientific). 3D EpiDerm skin tissues (MatTek EPI-200-AFAB) were transferred to a 12 well plate containing 600 μL of AFAB-assay medium supplemented with 10% v/v alamarBlue. […] HeLa cells were seeded in a 96-well plate (2×10^4 cells/per well) and incubated overnight at 37° C. and 5% CO2 in a humidified incubator to prepare wells at ˜50% confluency of adherent cells. After the incubation, spent DMEM was removed and cells were washed with PBS. alamarBlue-containing medium was prepared by mixing Phenol Red-free DMEM with alamarBlue solution at a 9:1 ratio and a 180 μl volume was added to each well. Cells were treated with peptides varying from 3.25 to 200 μg/mL and then incubated for 24 h. The fluorescence intensities of treated cultures were normalized to values measured for an untreated control group. After the 24 h incubation period, alamarBlue fluorescence was measured at 590 nm upon excitation at 560 nm using Varioskan Lux plate reader (Thermo Scientific) plate reader.

Values after ≈ are worked out from the molar mass of the structure shown. Square brackets hold non-standard residues; d marks the D form. Peptide text beside a SMILES is read from it.

As for `CC[C@@H](C)[C@@H](NC(=O)[C@@H](Cc1c[nH]c2ccccc12)NC(=O)[C@@H](CCCCN)NC(=O)[C@H](NC(=O)[C@@H](CC(C)C)NC(=O)CNC(=O)CNC(=O)[C@H](NC(=O)[C@H](N)[C@H](C)O)C(C)C)C(C)C)C(=O)N[C@H](CC(C)C)C(=O)N[C@H](CCCCN)C(=O)N[C@@H](C(=O)N[C@@H](C(=O)N[C@H](CCCCN)C(=O)N[C@H](CCCCN)C(=O)N[C@H](Cc1ccccc1)C(=O)N[C@H](C)C(N)=O)C(C)C)[C@H](C)O` [D-STIP3-29, TVGGLVKWILKTVKKFA-NH2] (H-[dT][dV]GG[dL][dV][dK][dW][dI][dL][dK][dT][dV][dK][dK][dF][dA]-NH2; N-terminus assumed), the “activity relative to the L-enantiomer” value in series [1] is “just as active as the L-enantiomer”. For the same molecule, in [2], the “MIC C. albicans MYA-2876” value turned out to be 50 µg/mL (≈ 26.5 µM). The “MIC C. albicans Y537” value in [3] was 50 µg/mL (≈ 26.5 µM). Moreover, the “DiSC3(5) fluorescence change” value in [4] is reported as “dose-dependent increase in fluorescence”. Also, the SYTOX fluorescence change result in series [5] is “rapid and concentration dependent increase in SYTOX fluorescence”. Also, the “MIC S. aureus ATCC BAA 2094 (V)” value in series [6] is 6.25 µg/mL (≈ 3.31 µM). Further, in [7], the “MIC S. aureus ATCC BAA 41 (II)” value was 6.25 µg/mL (≈ 3.31 µM). For the same molecule, the “MIC S. aureus ATCC 29213” value in series [8] came out at 6.25 µg/mL (≈ 3.31 µM). Moreover, the “MIC S. aureus ATCC 33592 (III)” value in [9] was found to be 6.25 µg/mL (≈ 3.31 µM). The “MIC S. aureus ATCC BAA 42 (VI)” value in series [10] was found to be 6.25 µg/mL (≈ 3.31 µM). The “MIC S. aureus ATCC BAA 44 (I)” value in series [11] amounted to 12.5 µg/mL (≈ 6.62 µM). Further, the “MIC S. aureus ATCC BAA 2313 (XI)” value in series [12] was found to be 6.25 µg/mL (≈ 3.31 µM). Besides, the “MIC S. aureus ATCC BAA 1683 (IV)” value in series [13] was 6.25 µg/mL (≈ 3.31 µM). Moreover, the “α helicity (%)” value in series [14] is recorded as 47%. Besides, in series [15], the “IC50, HeLa cell survival” value was determined as 39 ± 3 µg/mL (≈ 20.7 µM).
